Measurements as given in patent US20250304537A1 (Repare Therapeutics Inc., priority 2022, published 2025).
pIC50: −log10 of the molar value. Like-named read-outs stand apart in the source and are kept apart here.

Tested on: PKMYT1 (CDK1 pThr14) in FUOV1 cells
Assay: PKMYT1 cell-based activity assay, CDK1 pThr14 AlphaLISA in FUOV1 cells
Conditions: read-out: FUOV-1 CDK1 pThr14 IC50
Procedure: To determine compound IC50 (PKMYT1 cell-based activity assay, CDK1 pThr14 AlphaLISA), FUOV1 cells were plated into a 96-well TC-treated culture plate at 50000 cells/well in a final volume of 100 μL of media. The plates were then allowed to equilibrate in a biological safety cabinet for 30 minutes before being placed in a humidified incubator at 37 C and 5% CO2 overnight. The next day, 2 μL of PKMYT1 inhibitors or DMSO were diluted in 400 μL of warmed culture media in a 96-well block using a Biomek FX liquid handler. Compounds were mixed in media and then 25 μL was dispensed into each well of the 96-well cell plate. Plates were centrifuged at 300 g for 10 seconds and then placed in the incubator for 2 hours. After the 2-hour incubation with compound, media was removed via aspiration using a multichannel pipette. 30 μL of 1× AlphaLISA lysis buffer (Perkin Elmer) supplemented with protease and phosphatase inhibitors as well as 1 mM PMSF, was added to each well. Plates were rotated at 500 g for 20 minutes to facilitate lysis. Plates were then sealed with aluminum foil and frozen at −80° C. for at least 1 hour. Lysates were thawed at 37° C. for 10 minutes, then 10 μL of each lysate was transferred in duplicate to a white 384-well assay plate. Antibody mixture was prepared in 1× AlphaLISA assay buffer (Perkin Elmer) containing antibodies (5 nM final concentration for rabbit pThr14-CDK1 from Abcam #ab58509 and mouse total CDK1 from ThermoFisher Scientific #33-1800). 5 μL of antibody mixture was added to each well of the assay plate. The assay plate was sealed and stored at 4° C. overnight. The next day, AlphaLISA bead mixture (Perkin Elmer) was prepared in 1× AlphaLISA assay buffer. Anti-rabbit IgG Acceptor (Perkin Elmer #AL104C) and anti-mouse IgG Donor beads (Perkin Elmer #AS104D) were prepared to a concentration of 80 μg/ml in assay buffer. 5 μL of bead mixture was added to each well of the assay plate (20 μg/ml final concentration for each bead). The plate was protected from light and incubated for 2 hours at room temperature. After a 2-hour incubation with beads, the plate was read using the Perkin Elmer EnVision Multimode plate reader with excitation at 680 nm and emission at 615 nm.

Work on `Cc1ccc2[nH]ncc2c1-c1nc(-c2cccnc2Nc2nccnc2Cl)nc(C(N)=O)c1N` [Compound 763] yielded a pIC50 (2 h, 2 h compound incubation) of 7.54.
`Cc1ccc2[nH]ncc2c1-c1nc(-c2ccc(C(F)F)nc2Nc2ncccc2F)nc(C(N)=O)c1N` [Compound 931] showed a pIC50 (2 h, 2 hours with compound) of 7.85.
`Cc1c(F)cc2[nH]ncc2c1-c1nc(-c2cc(F)cnc2N[C@H]2CCOC2)nc(C(N)=O)c1N` [Compound 847] was tested, and the pIC50 (2 h, 2 hours with compound) was 7.66.
Molecule `Cc1ncc(F)c(Nc2cc(F)ccc2-c2nc(C(N)=O)c(N)c(-c3c(C)ccc4[nH]ncc34)n2)n1` [Compound 714] has a pIC50 (2 h, 2 h compound incubation) of 7.89.
`Cc1ccc2[nH]ncc2c1-c1nc(-c2ccc(F)nc2Nc2nc(C(F)F)ccc2F)nc(C(N)=O)c1N` [Compound 947] was tested, and the pIC50 (2 h, 2 hours with compound) was 8.40.
Work on `Cc1ccc2[nH]ncc2c1-c1nc(-c2cc(F)cnc2NCC(C)(C)C#N)nc(C(N)=O)c1N` [Compound 702] yielded a pIC50 (2 h, 2 h compound incubation) of 7.85.
`Cc1ccc2[nH]ncc2c1-c1nc(-c2cc(F)cnc2N[C@@H](C)C(F)(F)F)nc(C(N)=O)c1N` [Compound 888] gave a pIC50 (2 h, 2 hours with compound) of 6.95.
In the case of `Cc1cccc(Nc2ncccc2-c2nc(C(N)=O)c(N)c(-c3c(C)ccc4[nH]ncc34)n2)c1` [Compound 634], the pIC50 (2 h, 2 h compound incubation) was 6.24.
`CC(=O)N1CCN(c2nccc(-c3cc(-c4c(C)ccc5[nH]ncc45)c(N)c(C(N)=O)n3)n2)CC1` [Compound 215] gave a pIC50 (2 h, 2 h incubation) of 6.40.
Work on `Cc1ccc2[nH]ncc2c1-c1nc(-c2ccccc2-c2ccn[nH]2)nc(C(N)=O)c1N` [Compound 816] yielded a pIC50 (2 h, 2 hours with compound) of less than 5.00.
In the case of `Cc1ccc2[nH]ncc2c1-c1nc(-c2ccc(F)nc2Nc2ncccc2C#N)nc(C(N)=O)c1N` [Compound 934], the pIC50 (2 h, 2 hours with compound) was 7.92.
`Cc1ccc2[nH]ncc2c1-c1nc(-c2cccnc2Nc2ncccc2F)cc(C(N)=O)c1N` [Compound 846] showed a pIC50 (2 h, 2 hours with compound) of 7.92.
In the case of `Cc1ccc2[nH]ncc2c1-c1nc(-c2cncnc2NCC(F)(F)F)nc(C(N)=O)c1N` [Compound 573], the pIC50 (2 h, 2 h compound incubation) was 6.74.
Molecule `Cc1cccnc1Nc1ncc(F)cc1-c1nc(C(N)=O)c(N)c(-c2c(C)ccc3[nH]ncc23)n1` [Compound 672] has a pIC50 (2 h, 2 h compound incubation) of 7.48.
With `Cc1ccc2[nH]ncc2c1-c1nc(-c2cccnc2NCC2COCCO2)nc(C(N)=O)c1N` (centres unmarked) [Compound 642] the pIC50 (2 h, 2 h compound incubation) was 6.33.
With `Cc1ccc2[nH]ncc2c1-c1nc(-c2cc(F)cnc2NC2CC3(COC3)C2)nc(C(N)=O)c1N` [Compound 713] the pIC50 (2 h, 2 h compound incubation) was less than 5.00.
With `Cc1ccc2[nH]ncc2c1-c1nc(-c2cccnc2Nc2ncccc2C2CC2)nc(C(N)=O)c1N` [Compound 729] the pIC50 (2 h, 2 h compound incubation) was 7.24.
Molecule `COc1ncc(F)c(Nc2cc(F)ccc2-c2nc(C(N)=O)c(N)c(-c3c(C)ccc4[nH]ncc34)n2)n1` [Compound 627] has a pIC50 (2 h, 2 h compound incubation) of 7.92.
`Cc1ccc2[nH]ncc2c1-c1nc(-c2ccccc2[S+](C)[O-])nc(C(N)=O)c1N` (centres unmarked) [Compound 820] gave a pIC50 (2 h, 2 hours with compound) of 6.64.
With `Cc1ccc2[nH]ncc2c1-c1nc(-c2cccnc2Nc2nc(F)ccc2F)nc(C(N)=O)c1F` [Compound 500, 2-(2-((3,6-difluoropyridin-2-yl)amino)pyridin-3-yl)-5-fluoro-6-(5-methyl-1H-indazol-4-yl)pyrimidine-4-carboxamide] the pIC50 (2 h, 2 h compound incubation) was 6.36.
Work on `Cc1ccc2[nH]ncc2c1-c1nc(-c2ccc(F)cc2Nc2cncc(C#N)c2)nc(C(N)=O)c1N` [Compound 673] yielded a pIC50 (2 h, 2 h compound incubation) of 5.77.
Molecule `NC(=O)c1nc(-c2ccc(F)nc2Nc2ncccc2F)nc(-c2c(F)ccc3[nH]ncc23)c1N` [Compound 971] has a pIC50 (2 h, 2 hours with compound) of 7.68.
For `Cc1ccc2[nH]ncc2c1-c1nc(-c2cc(F)c(C#N)cc2NC(C)C(F)(F)F)nc(C(N)=O)c1N` (centres unmarked) [Compound 755], the pIC50 (2 h, 2 h compound incubation) was 6.99.
`Cc1ccc2[nH]ncc2c1-c1nc(-c2ccc(F)cc2Nc2ccnc(C(F)(F)F)c2)nc(C(N)=O)c1N` [Compound 585] gave a pIC50 (2 h, 2 h compound incubation) of 6.90.
Molecule `Cc1ccc2[nH]ncc2c1-c1nc(-c2ccc(F)cc2NC2CS(=O)(=O)C2)nc(C(N)=O)c1N` [Compound 811, 5-amino-2-(2-((1,1-dioxidothietan-3-yl)amino)-4-fluorophenyl)-6-(5-methyl-1H-indazol-4-yl)pyrimidine-4-carboxamide] has a pIC50 (2 h, 2 hours with compound) of 7.52.
With `Cc1ccc2[nH]ncc2c1-c1nc(-c2cc(F)c(F)cc2NCc2cccnc2)nc(C(N)=O)c1N` [Compound 496] the pIC50 (2 h, 2 h compound incubation) was 6.33.
In the case of `Cc1ccc2[nH]ncc2c1-c1nc(-c2cccnc2N2CCOCC2)nc(C(N)=O)c1N` [Compound 662], the pIC50 (2 h, 2 h compound incubation) was less than 5.00.
`Cc1ccnnc1Nc1cc(F)ccc1-c1nc(C(N)=O)c(N)c(-c2c(C)ccc3[nH]ncc23)n1` [Compound 540] was tested, and the pIC50 (2 h, 2 h compound incubation) was 8.05.
`Cc1ccc2[nH]ncc2c1-c1nc(-c2ccc(F)cc2Nc2cncnc2C)nc(C(N)=O)c1N` [Compound 695] was tested, and the pIC50 (2 h, 2 h compound incubation) was 7.39.
Work on `Cc1ccc(Cl)nc1Nc1nc(F)ccc1-c1nc(C(N)=O)c(N)c(-c2c(C)cc(F)c3[nH]ncc23)n1` [Compound 877] yielded a pIC50 (2 h, 2 hours with compound) of 7.43.
`Cc1ccc2[nH]ncc2c1-c1nc(-c2ccc(C#N)cc2Nc2ncccn2)nc(C(N)=O)c1N` [Compound 645] gave a pIC50 (2 h, 2 h compound incubation) of 7.92.
Molecule `N#Cc1cccnc1Nc1nc(F)ccc1-c1nc(C(N)=O)c(N)c(-c2c(F)ccc3[nH]ncc23)n1` [Compound 969] has a pIC50 (2 h, 2 hours with compound) of 7.80.
`Cc1ccc2[nH]ncc2c1-c1nc(-c2cccnc2Nc2cccc(Cl)c2)nc(C(N)=O)c1N` [Compound 638] showed a pIC50 (2 h, 2 h compound incubation) of 6.15.
`Cc1ccc2[nH]ncc2c1-c1nc(-c2cccnc2NCC2CCOCC2)nc(C(N)=O)c1N` [Compound 593] gave a pIC50 (2 h, 2 h compound incubation) of 6.53.
`Cc1ccc2[nH]ncc2c1-c1nc(-c2ccc(F)cc2Nc2ccnc(C3CC3)n2)nc(C(N)=O)c1N` [Compound 940] was tested, and the pIC50 (2 h, 2 hours with compound) was 6.57.
In the case of `Cc1ccc2[nH]ncc2c1-c1nc(-c2ccc(F)cc2Nc2nccs2)nc(C(N)=O)c1N` [Compound 581], the pIC50 (2 h, 2 h compound incubation) was 7.40.
In the case of `Cc1ccc2[nH]ncc2c1-c1nc(-c2cc(Cl)ncc2NC2CC(F)(F)C2)nc(C(N)=O)c1N` [Compound 840], the pIC50 (2 h, 2 hours with compound) was 7.27.
For `Cc1ccnc(Nc2c(C)cccc2-c2nc(C(N)=O)c(N)c(-c3c(C)ccc4[nH]ncc34)n2)n1` [Compound 775], the pIC50 (2 h, 2 h compound incubation) was 5.59.
Molecule `Cc1ccc2[nH]ncc2c1-c1nc(-c2ccc(F)cc2Nc2nccc(C(C)(C)C)n2)nc(C(N)=O)c1N` [Compound 576] has a pIC50 (2 h, 2 h compound incubation) of 5.34.
Work on `Cc1ccccc1Nc1ncccc1-c1nc(C(N)=O)c(N)c(-c2c(C)ccc3[nH]ncc23)n1` [Compound 657] yielded a pIC50 (2 h, 2 h compound incubation) of 7.15.
`Cc1ccc2[nH]ncc2c1-c1nc(-c2cn(C)nc2Nc2ncccc2F)nc(C(N)=O)c1N` [Compound 925] gave a pIC50 (2 h, 2 hours with compound) of 6.89.
`Cc1ccc2[nH]ncc2c1-c1nc(-c2ccc(C(F)(F)F)nc2Nc2ncccn2)nc(C(N)=O)c1N` [Compound 760] showed a pIC50 (2 h, 2 h compound incubation) of 6.70.
Molecule `Cc1ccc2[nH]ncc2c1-c1nc(-c2cc(F)cnc2NC2CCN(CC(F)F)CC2)nc(C(N)=O)c1N` [Compound 876] has a pIC50 (2 h, 2 hours with compound) of 6.13.
For `[2H]C([2H])([2H])c1ccc2[nH]ncc2c1-c1nc(-c2cccnc2NC23CC(C(N)=O)(C2)C3)nc(C(N)=O)c1N` [Compound 962, 5-amino-2-(2-((3-carbamoylbicyclo[1.1.1]pentan-1-yl)amino)pyridin-3-yl)-6-(5-(methyl-d3)-1H-indazol-4-yl)pyrimidine-4-carboxamide], the pIC50 (2 h, 2 hours with compound) was 6.15.
Molecule `Cc1ccc2[nH]ncc2c1-c1nc(-c2ccnnc2Nc2ncccc2F)nc(C(N)=O)c1N` [Compound 886, 5-amino-2-(3-((3-fluoropyridin-2-yl)amino)pyridazin-4-yl)-6-(5-methyl-1H-indazol-4-yl)pyrimidine-4-carboxamide] has a pIC50 (2 h, 2 hours with compound) of 7.43.
Molecule `NC(=O)c1nc(-c2cccnc2NC2CC2)nc(-c2c(Cl)ccc3[nH]ncc23)c1N` [Compound 919] has a pIC50 (2 h, 2 hours with compound) of 7.04.
Molecule `Cc1ccc2[nH]ncc2c1-c1nc(-c2ccc(Cl)nc2Nc2ncccc2C#N)nc(C(N)=O)c1N` [Compound 935] has a pIC50 (2 h, 2 hours with compound) of 8.10.
Work on `Cc1ccc2[nH]ncc2c1-c1nc(-c2ccc(F)nc2NC2CS(=O)(=O)C2)nc(C(N)=O)c1N` [Compound 819] yielded a pIC50 (2 h, 2 hours with compound) of 7.64.
Work on `Cc1ccc2[nH]ncc2c1-c1nc(-c2ccc(F)cc2NC2CCOCC2)nc(C(N)=O)c1N` [Compound 857] yielded a pIC50 (2 h, 2 hours with compound) of 7.12.
For `Cc1ccc2[nH]ncc2c1-c1nc(-c2cccnc2N[C@H]2CCCOC2)nc(C(N)=O)c1N` [Compound 546], the pIC50 (2 h, 2 h compound incubation) was 7.92.
For `Cc1ccc2[nH]ncc2c1-c1nc(-c2cccnc2NCCS(C)(=O)=O)nc(C(N)=O)c1N` [Compound 543], the pIC50 (2 h, 2 h compound incubation) was 6.03.
For `Cc1ccc(O)c(C)c1-c1nc(-c2ccnnc2)cc(C(N)=O)c1N` [Compound 77], the pIC50 (2 h incubation) was 6.75.
Molecule `NC(=O)c1nc(-c2cccnc2NC2CC2)nc(-c2c(F)ccc3[nH]ncc23)c1N` [Compound 933] has a pIC50 (2 h, 2 hours with compound) of 7.19.
Molecule `Cc1ccc2[nH]ncc2c1-c1nc(-c2cc(F)cnc2N[C@H]2C[C@@H](O)C2)nc(C(N)=O)c1N` [Compound 704] has a pIC50 (2 h, 2 h compound incubation) of 7.77.
In the case of `Cc1c(F)cc2[nH]ncc2c1-c1nc(-c2ccc(C(F)F)nc2Nc2ncccc2F)nc(C(N)=O)c1N` [Compound 855], the pIC50 (2 h, 2 hours with compound) was 7.89.
`COc1ccccc1Nc1ncccc1-c1nc(C(N)=O)c(N)c(-c2c(C)ccc3[nH]ncc23)n1` [Compound 632] gave a pIC50 (2 h, 2 h compound incubation) of 6.22.
